Reference: US11672772B2, “Use of glycyrrhetinic acid, glycyrrhizic acid and related compounds for mitigation and/or treatment of pneumonitis/pneumonia/pulmonary fibrosis induced by virus infection and/or by chemical or biological agents” (priority 2020, dated 2023)

What was measured:
[1] = system: various chemicals-induced pneumonitis (Bleomycin, Cisplatin, 5-Fluorouracil, Mitomycin, Methotrexate, paraquat); experiment: Various chemicals-induced pneumonitis in ICR mice; type: in vivo; details: for lung index (lung wet weight/body weight) / WBC number in blood: ICR mice, different time points; for lung index (lung wet weight/body weight): various inhaled chemicals, gavage of GR or GA; for WBC number in blood: gavage 122 mg/kg/day of GR or 67 mg/kg/day of GA within one hour; for number of neutrophils: pneumonitis induced by anticancer agents; for NLR (ratio of neutrophils to lymphocytes): various chemicals-induced pneumonitis; for lymphocytes %: various chemicals-induced pneumonitis incl. 5-FU, BLM and Cisplatin
H1N1 A/FM/1/47 = experiment: H1N1-pneumonia (H1N1-flu model) in mice; type: in vivo, C57BL/6 mice
Osimertinib-pneumonitis = type: in vivo, human; details: GR 300 mg/day orally
Experimental: A patient with lung cancer was treated with Osimertinib (80 mg/day), targeting EGFR pathway. […] At this time point, GR (300 mg/day) was orally used and the extent of Osimertinib-pneumonitis was reduced after one month use of GR (FIG. 17 C). Six months after using GR, pneumonitis subsided while Osimertinib was continuously used to target EGFR pathway (FIG. 17 D).

[2] = system: TGFβ and Collagen I expression in lung tissue; experiment: Bleomycin-induced late lung damage, lung tissue q-PCR of pro-fibrosis molecules; type: in vivo, Mice; details: 5 weeks after inhalation
[3] = system: Bleomycin (BLM) pneumonitis; experiment: Bleomycin-induced pneumonitis in ICR mice (new inhalation method), left and right lung lobes; type: in vivo; details: for pathology HE staining of lung: BLM-pneumonitis, GR/GA treatment vs NS; for lung sizes and lung index (lung wet weight/body weight), left and right side: inhaled 110 ul of 5 mg/ml BLM, oral GR 122 mg/kg/day or GA 67 mg/kg/day, three weeks, vs saline (NS)
Experimental: (§1) The subject invention provides an easy-perform mouse model with inhalation of 110-130 ul of liquid dissolved with various chemicals (e.g., anti-cancer drug or toxic paraquat) deep into whole lung to induce chemicals-pneumonitis. Compared with currently used intratracheal instillation, this new method is more quick (finished within 3 minutes) and non-invasion without surgically exposing the trachea. It delivers agents using a micropipette into the trachea at the back of the throat and allows the mouse to inhale into the lung with operator help for liquid deep-even distribution in the whole lung. This easy operation can quickly set-up for more than one hundred mice with chemicals-pneumonitis, providing enough mice for the screening or validating of various chemical or biological agents for anti-lung inflammation/infection to meet clinical needs.
(§2) A. After anesthesia, a rubber band was attached to the front teeth of the mice, and the mouse body was vertically upright. The tip of the tongue was pulled out with forceps, and 100-130 ul of liquid reagent was dripped into the upper part of the trachea at the back of the throat. The reagent was naturally inhaled into the mouse lung. […] Entire process was about one minute.
(§3) B. The mouse held firmly in the hands of the operator, moved up and down for 3-5 times to let the liquid moving deep into the lung, rotated around for 2-3 circles and repeated for 3 times to let the liquid evenly distributed in the lung. Entire process was about one minute.
Then, the mice were randomly divided into three groups (6 mice/group) and orally given different agents: 1) NS: vehicle of saline; 2) GR: 122 mg/kg/day of GR; 3) GA: 67 mg/kg/day of GA. Three weeks later, mice were sacrificed and the lung lobes of left and right sides were harvested separately.

BLM-pneumonitis = BLM-pneumonitis in C57BL/6 mice; type: in vivo; details: for mitigation/treatment effect on the severity of BLM-pneumonitis: 3 week period, compared with Dexamethasone; for neutrophils % / lymphocytes % / number of lymphocytes: C57BL/6 mice with BLM-pneumonitis; for lymphocytes % / number of lymphocytes: vs saline-treated; for body weight / dose as low as which could reduce the severity of BLM-pneumonitis: C57BL/6 mice; for body weight: BLM, oral Dexamethasone 1, GR 70, GA 22 mg/kg/day, 2 weeks; for dose as low as which could reduce the severity of BLM-pneumonitis: oral
Experimental: as §1, §2, §3
C57BL/6 mice (8 weeks, male) were anesthetized and inhalated 110 ul of 5 mg/ml Bleomycin (BLM) to induce BLM-pneumonitis (new method in FIG. 2). Then, the mice were randomly divided into groups (7 mice/group) and orally given different agents: 1) Normal: as time control without any treatment; 2) NS: treated with saline as vehicle control (all agents in saline); 3) Dexamethasone: 1 mg/kg/day of Dexamethasone; 4) GR: at the indicated three different doses of GR; 5) GA: at the indicated three different doses of GA. Due to the severe BLM-pneumonitis, the inflammatory factors (such as MPO, IL 6 etc.) were released to cause acute reactions: dilation of alveolar capillaries, increased permeability, plasma exudation, blood cells entering the lung interstitium/alveoli, resulting in an increased wet weight of whole lung. The lung index was calculated as: whole lung wet weight/body weight. The higher of lung index, the severer of pneumonitis.
C57BL/6 mice (8 weeks, male) were anesthetized and inhalated 110 ul of 5 mg/ml Bleomycin (BLM) to induce BLM-pneumonitis (new method in FIG. 2). Then, the mice were randomly divided into four groups and orally given different agents: 1) NS: vehicle of saline; 2) Dexamethasone: 1 mg/kg/day of Dexamethasone; 3) GR: 70 mg/kg/day of GR; 4) GA: 22 mg/kg/day of GA. Due to the severe lung inflammation, the body weights of mice were lost during 2 weeks.

[4] = Pharmacokinetics (PK) after oral GR or GA, plasma LC-MS/MS; type: in vivo; details: ICR mice, 400 mg/kg of GR or 224 mg/kg of GA (equal mole)
Experimental: After oral taken, it is converted into GA, an aglycone, fat soluble and easily absorbed through double lipid layer. Therefore, we propose that their pharmacokinetics (PK) should be different. […] 100 μl of plasma was added with 30 μl internal standard solution (100 ng/ml) and then 0.5 ml ethyl acetate. The mixture was vortex mixed for 3 min, centrifuged at 14 000×g for 15 min, and then removed 470 μl of supernatant to dry. After re-dissolved in 100 μl of acetonitrile-water (80[…]20, V/V, mobile phase agent), 20 μl was used for LC-MS/MS analysis.

H22 liver cancer = experiment: Tumor growth in ICR mice bearing H22 liver cancer; type: in vivo; details: GA 40 mg/kg
Experimental: To determine if GR/GA are used for mitigation/treatment of anti-cancer drugs induced pneumonitis has any blocking effect on anticancer, the GA (40 mg/kg) was used in ICR mice bearing with aggressive H22 liver cancer.

H22 tumor = experiment: H22 tumor-bearing mice treated with active immunotherapy (H22 vaccine) with GA; type: in vivo
Experimental: To determine if GA affects the anti-cancer immunotherapy, the H22 tumor-bearing mice were immunized with H22 vaccine, and GA (40 mg/kg) was used for anti-inflammation. The traditional Aspirin (60 mg/kg) was used as drug-control.

[5] = system: IL6 and MPO expression in lung tissue; experiment: Bleomycin+Paraquat-induced pneumonitis, lung tissue q-PCR of acute inflammation molecules; type: in vivo; details: ICR mice, Bleomycin then paraquat 2 weeks later; sacrificed after 2 weeks
Experimental: ICR mice were inhalated with 130 ul of 5 mg/ml, and then 2 week later 0.1 mg/ml of paraquat with mitigation using GR or GA. After 2 weeks, mice were sacrificed and the lung tissue were examined with q-PCR for the expression of acute inflammation molecules, such as IL6 and MPO.

Compound	lung index (lung wet weight/body weight) [1]	WBC number in blood [1]	number of neutrophils [1]	NLR (ratio of neutrophils to lymphocytes) [1]	lymphocytes % [1]	WBC number (H1N1 A/FM/1/47; day 12)	lymphocytes % (H1N1 A/FM/1/47; day 12)	Collagen I expression in lung tissue (q-PCR) [2]	TGFb expression in lung tissue (q-PCR) [2]	pathology HE staining of lung [3]	lung sizes and lung index (lung wet weight/body weight), left and right side [3]	mitigation/treatment effect on the severity of BLM-pneumonitis (BLM-pneumonitis)	neutrophils % (BLM-pneumonitis)	lymphocytes % (BLM-pneumonitis)	number of lymphocytes (BLM-pneumonitis)	body weight (BLM-pneumonitis)	dose as low as which could reduce the severity of BLM-pneumonitis (BLM-pneumonitis)	also measured
CC1(C)[C@@H](O[C@H]2O[C@H](C(=O)O)[C@@H](O)[C@H](O)[C@H]2O[C@@H]2O[C@H](C(=O)O)[C@@H](O)[C@H](O)[C@H]2O)CC[C@]2(C)[C@H]3C(=O)C=C4[C@@H]5C[C@@](C)(C(=O)O)CC[C@]5(C)CC[C@@]4(C)[C@]3(C)CC[C@@H]12 [GR, glycyrrhizic acid]	significantly reduced	reduced	reduced	reduce	increased	reduced WBC number greater than Ribavirin	significantly increased	reduced	reduced	less inflitration of inflammation cells and better lung structure	significantly reduced	better than Dexamethasone	greatly reduced	increased almost to the normal level	increased	helped mice to maintain their body weight	≤ 40 mg/kg/day	lymphocytes number (H1N1 A/FM/1/47; H1N1-pneumonia, vs NS): increased it in greater degree than Ribavirin; neutrophils % (H1N1 A/FM/1/47; H1N1-pneumonia, vs NS): reduced them in greater degree than Ribavirin; neutrophils number (H1N1 A/FM/1/47; H1N1-pneumonia, vs NS): reduced them in greater degree than Ribavirin; lung index (H1N1 A/FM/1/47; day 7, 2×LD50 virus, GR 70 mg/kg gavage once a day): acted like Ribavirin to reduce the lung index; lymphocytes % (H1N1 A/FM/1/47; day 7 of infection): slightly increased; IFNg level (H1N1 A/FM/1/47; day 12): much less than that in NS and Ribavirin group; MCP-1 level (H1N1 A/FM/1/47; day 12): reduces MCP-1 to a normal level; ratio of neutrophils to lymphocytes (NLR) (H1N1 A/FM/1/47; day 12): reduced; spleen index (H1N1 A/FM/1/47; day 12): reduced spleen index; lung index (H1N1 A/FM/1/47; day 12, 1×LD50 virus): still had a reduced lung index; extent of Osimertinib-pneumonitis (Osimertinib-pneumonitis; after one month): reduced; Osimertinib-pneumonitis (Osimertinib-pneumonitis; six months, Osimertinib continued): subsided
glycyrrhetinic acid [GA]	significantly reduced	reduced	reduced	reduce	increased	reduced WBC number greater than Ribavirin	significantly increased	reduced	reduced	less inflitration of inflammation cells and better lung structure	significantly reduced	better than Dexamethasone	greatly reduced	increased almost to the normal level	increased	helped mice to maintain their body weight	≤ 22 mg/kg/day	Tmax [4]: 30 min; growth of tumor (H22 liver cancer): could reduce the growth of cancer in vivo; survival (H22 tumor; 80 day follow-up, tumor-bearing mice treated with H22 vaccine and GA): could prolong the survival time of mice; effect of combination use on the anti-tumor effect of H22 vaccine (H22 tumor; GA 40 mg/kg with H22 vaccine): not affected; IL6 expression in lung tissue (q-PCR) [5]: reduces; MPO expression in lung tissue (q-PCR) [5]: reduces
